We go through 1 compound from patent US20260060947A1 (INSTITUT PASTEUR DE MONTEVIDEO, priority 2019, published 2026).

In general, CC50 refers to the concentration that lowers cell viability or growth by half.

Series [1] in a line: BANA plasma levels by RP-HPLC after oral administration. The format is in vivo, SOD1^G93A rats. On the procedure:
(§1) Only female transgenic rats showing weakness and gait alterations in the […] as the first clinical sign were selected for BANA treatment studies. Rats were divided randomly into BANA or vehicle-treated groups. BANA was freshly prepared in buffer phosphate (PB), and administrated daily at a dose of 100 mg/kg using a curved stainless steel gavage needle with 3-mm ball tip. Rats were treated from day-1 post-paralysis for 15 days or until end-stage when they were euthanized.
For the detection of BANA in plasma, experiments were performed using RP-HPLC analysis (Agilent 1200 HPLC system). Rats were sacrificed and plasma samples were obtained. 100 μL of plasma was incubated with HgCl2 (20 mM) at 37° C. for 30 minutes and after that extracted with 900 μL of acetonitrile (ACN) and injected into HPLC in a 20-40% gradient of B in 10 minutes. BANA plasma concentration was calculated from a standard curve using Salicylate as an internal standard. (CPAK C-18, […], 150 mm×3.9 mm I.D. column; A phase: H2O 0.1% Formic acid; B phase: ACN 0.1% Formic acid; detection at 300 nm)
Rates were dosed with 100 mg/kg/day of BANA administered orally.

Series [2] has as its system SOD1^G93A rats. Briefly: Post-paralysis survival trial in SOD1^G93A rats. It is filed as in vivo, rat. On the procedure:
as §1
All rats were weighed and evaluated for motor activity daily. Disease onset was determined for each animal when pronounced muscle atrophy accompanied by abnormal gait, typically expressed as subtle limping or dragging of one hind limb. End-stage was defined by a lack of righting reflexes or the inability to reach food and water.
Survival curves were compared by Kaplan-Meier analysis with the Log-rank test using GraphPad Prism 7 software.
To test whether systemic treatment with BANA could prolong the survival of SOD1^G93A rats, a trial was conducted in which rats were orally treated with BANA (100 mg/kg/day) or vehicle, starting immediately after paralysis onset of one hind limb until the end-stage of the disease.

Series [3] is described as follows: LC50 in cell culture of SOD1^G93A adult microglia. It is filed as cell-based. The settings on record: rat.
Setting [4] is: oral 100 mg/kg/day from paralysis onset until end-stage.

Values joined by “and” are separate entries in the source; they are usually repeats but may differ in a detail not shown here. Equal entries are not always repeated.

Turning to `O=C(O)c1ccc(/C=C/[N+](=O)[O-])cc1` [BANA, (E)-4-(2-nitrovinyl) benzoic acid], the “[BANA] in plasma, sample + HgCl2” value in series [1] (SOD1^G93A symptomatic rats, 15 days oral daily 100 mg/kg, plasma incubated with HgCl2 (20 mM, 37° C., 30 min), 100 mg/kg) is 3.69 μm and 3.45 μm and 3.58 μm. Besides, the concentration at 15 days in series [1] (female, SOD1^G93A transgenic, rat, plasma, po, 100 mg/kg, SOD1^G93A symptomatic rats, 15 days oral daily 100 mg/kg, plasma incubated with HgCl2 (20 mM, 37° C., 30 min), read-out: [BANA] in plasma, sample + HgCl2) came out at 3.29 µM. Besides, the “BANA plasma levels reached” value in series [1] (rats, 100 mg/kg/day orally, HPLC) amounted to 3.49 µM. Further, the “fraction of plasma BANA covalently linked to proteins” value in series [1] (rats, oral 100 mg/kg/day for 5 days) is given as “more than 90%”. Further, the “plasma concentration after oral administration (in words)” value in series [1] (rats, oral administration) is listed as “low micromolar concentration”. In series [2] (setting [4]), the “increase probability of survival compared with vehicle-treated rats” value amounted to 32% and the mean survival time result was “evidence of a survival benefit”. In series [2] (oral, starting after disease onset), the “post-paralysis survival prolonged respect to vehicle” value is on record as 32%. Further, the CC50 in series [3] worked out at 30 µM.
